Measured values reported in patent US20130252816A1, “HERBICIDAL COMPOSITION AND USE THEREOF” (Syngenta Crop Protection LLC, priority 2010, published 2013).

How the values were obtained:
Assay in all cases: Example 1: adjuvants alone, visual % damage, pots in glasshouse
Assay type in all cases: in vivo
Poa annua = tested on: Poa annua
Method: (§1) The effect of different adjuvants (see Table 1 below) on the growth of broadleaf weed and grass species was investigated and compared to untreated (water only) control weeds.
(§2) Plates, each with 48 pots measuring 2.7 cm diameter and 5 cm deep, were filled with TKS1 growing media (Floragard, Germany). Seeds of Taraxacum officinale, Stellaria media or Poa annua were sown on the surface (10 to 20 per pot). Plants were grown in glasshouse at a temperature of 18 to 20° C. and at 60% relative humidity.
(§3) Plants were treated 15 (Stellaria, Poa) and 34 (Taraxacum) days after sowing with 60 μl of a 1.25, 2.5, 5 and 10% (w/v) solution of adjuvant using a hand airbrush.
(§4) Visual assessment of the percentage damage to the plant was carried out 1 day and 6 days from application.
(§5) Damage was assessed as wilting, desiccation or any other kind of visual injury in comparison to the untreated control (water only).

Stellaria media = tested on: Stellaria media
Method: as §1, §2, §3, §4, §5

Taraxacum officinale = tested on: Taraxacum officinale
Method: as §1, §2, §3, §4, §5

Substance	avg % damage 1 DAA Poa annua (Poa annua; adjuvant 1.25% w/v)	avg % damage 6 DAA Poa annua (Poa annua; adjuvant 1.25% w/v)	avg % damage 1 DAA Poa annua (Poa annua; adjuvant 2.5% w/v)	avg % damage 6 DAA Poa annua (Poa annua; adjuvant 2.5% w/v)	avg % damage 1 DAA Poa annua (Poa annua; adjuvant 5% w/v)	avg % damage 6 DAA Poa annua (Poa annua; adjuvant 5% w/v)	avg % damage 1 DAA Poa annua (Poa annua; adjuvant 10% w/v)	avg % damage 6 DAA Poa annua (Poa annua; adjuvant 10% w/v)	avg % damage 1 DAA Stellaria media (Stellaria media; adjuvant 1.25% w/v)	avg % damage 6 DAA Stellaria media (Stellaria media; adjuvant 1.25% w/v)	avg % damage 1 DAA Stellaria media (Stellaria media; adjuvant 2.5% w/v)	avg % damage 6 DAA Stellaria media (Stellaria media; adjuvant 2.5% w/v)	avg % damage 1 DAA Stellaria media (Stellaria media; adjuvant 5% w/v)	avg % damage 6 DAA Stellaria media (Stellaria media; adjuvant 5% w/v)	avg % damage 1 DAA Stellaria media (Stellaria media; adjuvant 10% w/v)	avg % damage 6 DAA Stellaria media (Stellaria media; adjuvant 10% w/v)	avg % damage 1 DAA Taraxacum officinale (Taraxacum officinale; adjuvant 1.25% w/v)	avg % damage 6 DAA Taraxacum officinale (Taraxacum officinale; adjuvant 1.25% w/v)	avg % damage 1 DAA Taraxacum officinale (Taraxacum officinale; adjuvant 2.5% w/v)	avg % damage 6 DAA Taraxacum officinale (Taraxacum officinale; adjuvant 2.5% w/v)	further results
Oleyl alcohol polyglycol ether with 20 moles of ethoxylation [GenapolO200]	0%	0%	0%	0%	0%	0%	0%	0%	0%	0%	0%	5%	0%	5%	15%	30%	0%	3%	0%	0%	avg % damage 1 DAA Taraxacum officinale (Taraxacum officinale; adjuvant 5% w/v): 0%; avg % damage 6 DAA Taraxacum officinale (Taraxacum officinale; adjuvant 5% w/v): 5%; avg % damage 1 DAA Taraxacum officinale (Taraxacum officinale; adjuvant 10% w/v): 10%; avg % damage 6 DAA Taraxacum officinale (Taraxacum officinale; adjuvant 10% w/v): 0%
Oleyl alcohol polyglycol ether with 15 moles of ethoxylation [GenapolO150]	0%	0%	0%	0%	0%	0%	0%	0%	0%	5%	0%	20%	13%	30%	43%	60%	0%	3%	0%	0%	avg % damage 1 DAA Taraxacum officinale (Taraxacum officinale; adjuvant 5% w/v): 5%; avg % damage 6 DAA Taraxacum officinale (Taraxacum officinale; adjuvant 5% w/v): 3%; avg % damage 1 DAA Taraxacum officinale (Taraxacum officinale; adjuvant 10% w/v): 5%; avg % damage 6 DAA Taraxacum officinale (Taraxacum officinale; adjuvant 10% w/v): 3%
